Patent US11753397B2, “Cereblon binders for the degradation of ikaros” (C4 Therapeutics, Inc., priority 2018, dated 2023)

Test system: NCIH929.1 cells
Test: Cell viability assay (CellTiter-Glo 2.0, ATP quantification)
Assay type: cell-based
Settings: NCIH929.1 cell viability, CellTiter-Glo 2.0, 96 hr incubation, top concentration 1 μM
Method: Example 59. Cell Viability Assay
RPMI 1640 medium, fetal bovine serum (FBS) and 2-mercaptoethanol were purchased from Gibco (Grand Island, N.Y., USA). CellTiter-Glo® 2.0 Assay was purchased from Promega (Madison, Wis., USA). NCIH929.1 cell line was purchased from ATCC (Manassas, Va., USA). Cell culture flasks and 384-well microplates were acquired from VWR (Radnor, Pa., USA).
NCIH929.1 cell viability was determined based on quantification of ATP using CellTiter-Glo® 2.0 luminescent Assay kit, which signals the presence of metabolically-active cells. Briefly, the test compound was added to 384-well plates at a top concentration of 1 μM with 10 points, half log titration in duplicates. NCIH929.1 cells were seeded into the 384-well plates in RPMI medium containing 10% FBS and 0.05 mM 2-mercaptoethanol at a cell density of 750 cells per well. Cells treated in the absence of the test compound were the negative control and cells treated in the absence of CellTiter-Glo® 2.0 were the positive control. At the same day of compound treatment, CellTiter-Glo® 2.0 was added to a plate with cells treated in the absence of the test compound to establish Cytostatic control value (CT0). Cells treated with the test compound were incubated at 37° C. with 5% CO2 for 96 hr. CellTiter-Glo reagent was then added to the cells and luminescence was acquired on EnVision™ Multilabel Reader (PerkinElmer, Santa Clara, Calif., USA).

SMILES	GI50 [nM]
O=C1CCC(N2C(=O)c3cccc(NCc4cnn(C5CCN(C(=O)C6CC(F)(F)C6)CC5)c4)c3C2=O)C(=O)N1 (centres unmarked) [Compound 29, 4-(((1-(1-(3,3-difluorocyclobutane-1-carbonyl)piperidin-4-yl)-1H-pyrazol-4-yl)methyl)amino)-2-(2,6-dioxopiperidin-3-yl)isoindoline-1,3-dione]	< 100
O=C1CCC(N2C(=O)c3cccc(NCc4cnn(C5CCN(C(=O)CCC(F)(F)F)CC5)c4)c3C2=O)C(=O)N1 (centres unmarked) [Compound 30, 2-(2,6-dioxopiperidin-3-yl)-4-(((1-(1-(4,4,4-trifluorobutanoyl)piperidin-4-yl)-1H-pyrazol-4-yl)methyl)amino)isoindoline-1,3-dione]	< 100
COCC(=O)N1CCC(n2cc(CNc3cccc4c3C(=O)N(C3CCC(=O)NC3=O)C4=O)cn2)CC1 (centres unmarked) [Compound 31, 2-(2,6-dioxopiperidin-3-yl)-4-(((1-(1-(2-methoxyacetyl)piperidin-4-yl)-1H-pyrazol-4-yl)methyl)amino)isoindoline-1,3-dione]	< 100
O=C1CCC(N2C(=O)c3cccc(NCc4cnn(C5CCN(C(=O)C6CCCC6)CC5)c4)c3C2=O)C(=O)N1 (centres unmarked) [Compound 32, 4-(((1-(1-(cyclopentanecarbonyl)piperidin-4-yl)-1H-pyrazol-4-yl)methyl)amino)-2-(2,6-dioxopiperidin-3-yl)isoindoline-1,3-dione]	< 100
CC1(C(=O)N2CCC(n3cc(CNc4cccc5c4C(=O)N(C4CCC(=O)NC4=O)C5=O)cn3)CC2)CCC1 (centres unmarked) [Compound 33, 2-(2,6-dioxopiperidin-3-yl)-4-(((1-(1-(1-methylcyclobutane-1-carbonyl)piperidin-4-yl)-1H-pyrazol-4-yl)methyl)amino)isoindoline-1,3-dione]	< 1
Cn1cc(C(=O)N2CCC(n3cc(CNc4cccc5c4C(=O)N(C4CCC(=O)NC4=O)C5=O)cn3)CC2)cn1 (centres unmarked) [Compound 34, 2-(2,6-dioxopiperidin-3-yl)-4-(((1-(1-(1-methyl-1H-pyrazole-4-carbonyl)piperidin-4-yl)-1H-pyrazol-4-yl)methyl)amino)isoindoline-1,3-dione]	< 100
CCCC(=O)N1CCC(n2cc(CNc3cccc4c3C(=O)N(C3CCC(=O)NC3=O)C4=O)cn2)CC1 (centres unmarked) [Compound 35, 4-(((1-(1-butyrylpiperidin-4-yl)-1H-pyrazol-4-yl)methyl)amino)-2-(2,6-dioxopiperidin-3-yl)isoindoline-1,3-dione]	< 100
CC1(C(=O)N2CCC(n3cc(CNc4cccc5c4C(=O)N(C4CCC(=O)NC4=O)C5=O)cn3)CC2)CC1 (centres unmarked) [Compound 36, 2-(2,6-dioxopiperidin-3-yl)-4-(((1-(1-(1-methylcyclopropane-1-carbonyl)piperidin-4-yl)-1H-pyrazol-4-yl)methyl)amino)isoindoline-1,3-dione]	< 100
CN(C)CC(=O)N1CCC(n2cc(CNc3cccc4c3C(=O)N(C3CCC(=O)NC3=O)C4=O)cn2)CC1 (centres unmarked) [Compound 37, 4-(((1-(1-(dimethylglycyl)piperidin-4-yl)-1H-pyrazol-4-yl)methyl)amino)-2-(2,6-dioxopiperidin-3-yl)isoindoline-1,3-dione]	< 100
O=C1CCC(N2C(=O)c3cccc(NCc4cnn(C5CCN(C(=O)[C@H]6CCCO6)CC5)c4)c3C2=O)C(=O)N1 (stereo partly drawn) [Compound 38, 2-(2,6-dioxopiperidin-3-yl)-4-(((1-(1-((R)-tetrahydrofuran-2-carbonyl)piperidin-4-yl)-1H-pyrazol-4-yl)methyl)amino)isoindoline-1,3-dione]	< 100
O=C1CCC(N2C(=O)c3cccc(NCc4cnn(C5CCN(C(=O)c6cc(C7CC7)on6)CC5)c4)c3C2=O)C(=O)N1 (centres unmarked) [Compound 39, 4-(((1-(1-(5-cyclopropylisoxazole-3-carbonyl)piperidin-4-yl)-1H-pyrazol-4-yl)methyl)amino)-2-(2,6-dioxopiperidin-3-yl)isoindoline-1,3-dione]	< 100
